# In publication PMC10336670 (Saudi Pharmaceutical Journal : SPJ, 2023):
# Molecular target: urease enzyme (Canavalia ensiformis, UniProt P07374)
# Type: biochemical
# Sequence of urease enzyme (P07374 whole entry, looked up): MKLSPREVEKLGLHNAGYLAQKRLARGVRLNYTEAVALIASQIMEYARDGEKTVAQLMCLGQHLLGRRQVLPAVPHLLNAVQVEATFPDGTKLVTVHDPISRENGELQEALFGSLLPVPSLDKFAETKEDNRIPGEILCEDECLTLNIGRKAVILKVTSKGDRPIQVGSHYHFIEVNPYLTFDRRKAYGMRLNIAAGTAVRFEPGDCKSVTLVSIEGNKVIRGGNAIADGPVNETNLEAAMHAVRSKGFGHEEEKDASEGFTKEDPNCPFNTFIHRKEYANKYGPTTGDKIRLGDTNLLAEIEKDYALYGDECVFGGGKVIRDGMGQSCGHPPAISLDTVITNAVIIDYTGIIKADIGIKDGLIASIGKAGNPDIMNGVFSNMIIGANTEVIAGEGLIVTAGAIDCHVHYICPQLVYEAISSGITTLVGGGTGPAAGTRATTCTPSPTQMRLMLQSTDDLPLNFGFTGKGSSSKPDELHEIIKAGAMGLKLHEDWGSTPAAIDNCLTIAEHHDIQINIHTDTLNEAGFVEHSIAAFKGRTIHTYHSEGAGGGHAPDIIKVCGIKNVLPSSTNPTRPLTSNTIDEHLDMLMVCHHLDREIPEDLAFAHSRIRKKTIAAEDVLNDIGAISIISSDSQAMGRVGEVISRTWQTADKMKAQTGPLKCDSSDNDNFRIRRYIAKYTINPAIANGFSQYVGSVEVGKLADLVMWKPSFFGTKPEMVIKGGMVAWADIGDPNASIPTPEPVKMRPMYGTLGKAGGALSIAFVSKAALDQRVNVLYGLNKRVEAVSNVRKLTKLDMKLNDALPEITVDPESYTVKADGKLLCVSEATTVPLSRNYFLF
row,SMILES,potency as urease inhibitor compared to the standard drug thiourea
1,"CN(C)c1ccc(-c2coc(N/N=C\c3cnc4ccc(F)cn34)n2)cc1 [4 l, (Z)-4-(2-(2-((6-fluoroimidazo[1,2-a]pyridin-3-yl)methylene)hydrazineyl)oxazol-4-yl)-N,N-dimethylaniline]",three-fold least potency
2,"Fc1ccc2ncc(/C=N\Nc3nc(-c4ccc(-c5ccccc5)cc4)co3)n2c1 [4c, (Z)-4-([1,1'-biphenyl]-4-yl)-2-(2-((6-fluoroimidazo[1,2-a]pyridin-3-yl)methylene)hydrazineyl)oxazole]",three-fold least potent
3,"Cc1ccc(-c2ccc(-c3coc(N/N=C\c4cnc5ccc(F)cn45)n3)cc2)cc1 [4f, (Z)-2-(2-((6-fluoroimidazo[1,2-a]pyridin-3-yl)methylene)hydrazineyl)-4-(4'-methyl-[1,1'-biphenyl]-4-yl)oxazole]",three-fold least potent
4,"Cc1ccccc1-c1coc(N/N=C\c2cnc3ccc(F)cn23)n1 [4p, (Z)-2-(2-((6-fluoroimidazo[1,2-a]pyridin-3-yl)methylene)hydrazineyl)-4-(o-tolyl)oxazole]",three-fold least potency
